The series has as its system JNK2 mRNA. The series is described as follows: Northern assay of JNK2 mRNA expression in A549 cells. It is filed as cell-based, human. Conditions: for % EXPRESSION: relative to LIPOFECTIN-only control. How it is done: In order to evaluate the activity of potential JNK-modulating oligonucleotides, human lung carcinoma cell line A549 (American Type Culture Collection, Rockville, Md. No. ATCC CCL-185) cells or other cell lines as indicated in the Examples, were grown and treated with oligonucleotides or control solutions as detailed below. After harvesting, cellular extracts were prepared and examined for specific JNK mRNA levels or JNK protein levels (i.e., Northern or Western assays, respectively). In all cases, “% expression” refers to the amount of JNK-specific signal in an oligonucleotide-treated cell relative to an untreated cell (or a cell treated with a control solution that lacks oligonucleotide), and “% inhibition” is calculated as
100%−% Expression =% Inhibition.
Northern Assays: The mRNA expression of each JNK protein was determined by using a nucleic acid probe specifically hybridizable thereto. Nucleic acid probes specific for JNK1, JNK2 and JNK3 are described in Examples 3, 4 and 5, respectively. The probes were radiolabelled by means well known in the art (see, e.g., Short Protocols in Molecular Biology, 2nd Ed., Ausubel et al., Eds., John Wiley & Sons, New York, 1992, pages 3-11 to 2-3-44 and 4-17 to 4-18; Ruth, Chapter 6 In: Methods in Molecular Biology, Vol. 26: Protocols for Oligonucleotide Conjugates, Agrawal, ed., Humana Press Inc., Totowa, N.J., 1994, pages 167-185; and Chapter 10 In: Molecular Cloning: A Laboratory Manual, 2nd Ed., Sambrook et al., Eds., pages 10.1-10.70). The blots were stripped and reprobed with a ^32P-labeled glyceraldehyde 3-phosphate dehydrogenase (G3PDH) probe (Clontech Laboratories, Inc., Palo Alto, Calif.) in order to confirm equal loading of RNA and to allow the levels of JNK transcripts to be normalized with regard to the G3PDH signals.
A549 cells were grown in T-75 flasks until 80-90% confluent. At this time, the cells were washed twice with 10 mL of media (DMEM), followed by the addition of 5 mL of DMEM containing 20 μg/mL of LIPOFECTIN™ (i.e., 1:1 (w/w) DOTMA/DOPE, Life Technologies, Gaithersburg, Md.; DOTMA=N-[1-(2,3-dioleyoxy)propyl]-N,N,N-trimethylammonium chloride; DOPE=dioleoyl phosphatidylethanolamine). The oligonucleotides were added from a 10 μM stock solution to a final concentration of 400 nM, and the two solutions were mixed by swirling the flasks. As a control, cells were treated with LIPOFECTIN™ without oligonucleotide under the same conditions and for the same times as the oligonucleotide-treated samples. After 4 hours at 37° C., the medium was replaced with fresh DMEM containing 10% serum. The cells were allowed to recover for 18 hours. Total cellular RNA was then extracted in guanidinium, subject to gel electrophoresis and transferred to a filter according to techniques known in the art (see, e.g., Chapter 7 In: Molecular Cloning: A Laboratory Manual, 2nd Ed., Sambrook et al., Eds., pages 7.1-7.87, and Short Protocols in Molecular Biology, 2nd Ed., Ausubel et al., Eds., John Wiley & Sons, New York, 1992, pages 2-24 to 2-30 and 4-14 to 4-29). Filters were typically hybridized overnight to a probe specific for the particular JNK gene of interest in hybridization buffer (25 mM KPO4, pH 7.4; 5×SSC; 5× Denhardt's solution, 100 μg/ml Salmon sperm DNA and 50% formamide) (Alahari et al., Nucl. Acids Res., 1993, 21, 4079). This was followed by two washes with 1×SSC, 0.1% SDS and two washes with 0.25×SSC, 0.1% SDS. Hybridizing bands were visualized by exposure to X-OMAT AR film and quantitated using a PHOSPHORIMAGER™ essentially according to the manufacturer's instructions (Molecular Dynamics, Sunnyvale, Calif.)
B. JNK2-specific probes: In initial screenings of a set of oligonucleotides derived from the JNK2 sequence (Table 9) for biological activity, a cDNA clone of JNK2 (Kallunki et al., Genes & Development, 1994, 8, 2996) was radiolabeled and used as a JNK2-specific probe in Northern blots. […]

The mark [1] stands for this setting: JNK2 mRNA, A549 cells, 400 nM oligonucleotide.
[2] abbreviates: JNK2 mRNA dose response, 100 nM.
[3] abbreviates: JNK2 mRNA dose response, 200 nM.
Where [4] appears, read: JNK2 mRNA dose response, 400 nM.
Setting [5] is: JNK2 mRNA time course, t=0 h after 4 hour treatment.
[6] abbreviates: JNK2 mRNA, chemically modified oligonucleotides, dose 100 nM.
The mark [7] stands for this setting: JNK2 mRNA, chemically modified oligonucleotides, dose 400 nM.
Setting [8] is: JNK2 mRNA, A549 cells, 400 nM oligonucleotide, 100% - % expression.

Strand notation (5' to 3'): a small letter for the sugar, then the base; units joined by * are phosphorothioate-linked, units joined directly phosphodiester-linked; [ ] holds rarer units or linkages, { } end groups; capitals alone tell only the bases. e = 2'-O-(2-methoxyethyl) (MOE); [5mC] = 5-methylcytosine; d = 2'-deoxy (DNA)

With “12558 (antisense dG*dT*dT*dT*dC*dA*dG*dA*dT*dC*dC*dC*dT*dC*dG*dC*dC*dC*dG*dC) [compound 12558]”, the “% EXPRESSION” value under setting [1] is 15%.

Regarding “12559 (antisense dT*dG*dC*dA*dG*dC*dA*dC*dA*dA*dA*dC*dA*dA*dT*dC*dC*dC*dT*dT) [compound 12559]”, under setting [1], the “% EXPRESSION” value was found to be 28%.

Take “12560 (antisense GTCCGGGCCAGGCCAAAGTC; DNA, all phosphorothioate, methylation of C not given here) [compound 12560]”: the “Normalized % Control” value is reported as 68.1% (JNK2 mRNA dose response, 50 nM); 50.0% under setting [2]; 25.1% under setting [3]; 14.2% under setting [4]; 20.2% under setting [5]; 11.1% (JNK2 mRNA time course, t=4 h). Besides, the “Normalized % Control” value is, setting by setting: (JNK2 mRNA time course, t=12 h) 21.8%; (JNK2 mRNA time course, t=48 h) 42.7%; (JNK2 mRNA time course, t=72 h) 116.8%; under setting [6], 62.1%; under setting [7], 31.4%. The “% INHIBITION” value under setting [5] is listed as 79.8%; the “% INHIBITION” value (JNK2 mRNA time course, t=4 h) came out at 88.9%; the “% INHIBITION” value (JNK2 mRNA time course, t=12 h) is recorded as 78.2%; the “% INHIBITION” value (JNK2 mRNA time course, t=48 h) was determined as 57.3%; the “% INHIBITION” value (JNK2 mRNA time course, t=72 h) is “(0.0) %”. In addition, the “% EXPRESSION” value under setting [1] is 11%.

With “12561 (antisense dC*dA*dG*dG*dA*dT*dG*dA*dC*dT*dT*dC*dG*dG*dG*dC*dG*dC*dC*dC) [compound 12561]”, under setting [1], the “% EXPRESSION” value stood at 60%. Moreover, the “% INHIBITION” value under setting [8] was 40%.

With “12562 (antisense dG*dC*dT*dC*dT*dC*dC*dC*dA*dT*dG*dA*dT*dG*dC*dA*dA*dC*dC*dC) [compound 12562]”, the “% EXPRESSION” value under setting [1] was found to be 89%. For the same substance, the “% INHIBITION” value under setting [8] is on record as 11%.

“12563 (antisense dA*dT*dG*dG*dG*dT*dG*dA*dC*dG*dC*dA*dG*dA*dG*dC*dT*dT*dC*dG) [compound 12563]”: under setting [1], the “% EXPRESSION” value worked out at 22%.

Consider “12564 (antisense dC*dT*dG*dC*dT*dG*dC*dA*dT*dC*dT*dG*dA*dA*dG*dG*dC*dT*dG*dA) [compound 12564]”, for which the “% EXPRESSION” value under setting [1] turned out to be 28%.

With “12565 (antisense dT*dG*dA*dG*dA*dA*dG*dG*dA*dG*dT*dG*dG*dC*dG*dT*dT*dG*dC*dT) [compound 12565]”, the “% EXPRESSION” value under setting [1] is recorded as 19%.

Consider “12566 (antisense dT*dG*dC*dT*dG*dT*dC*dT*dG*dT*dG*dT*dC*dT*dG*dA*dG*dG*dC*dC) [compound 12566]”, for which, under setting [1], the “% EXPRESSION” value is reported as 42%.

As to “12568 (antisense dC*dA*dT*dT*dT*dC*dA*dG*dG*dC*dC*dC*dA*dC*dG*dG*dA*dG*dG*dT) [compound 12568]”, the “% EXPRESSION” value under setting [1] was determined as 20%.

As for “12569 (antisense dG*dG*dT*dC*dT*dG*dA*dA*dT*dA*dG*dG*dG*dC*dA*dA*dG*dG*dC*dA) [compound 12569]”, the “% EXPRESSION” value under setting [1] is reported as 13%.

For “12570 (antisense dG*dG*dG*dC*dA*dA*dG*dT*dC*dC*dA*dA*dG*dC*dA*dA*dG*dC*dA*dT) [compound 12570]”, the “% EXPRESSION” value under setting [1] stood at 24%.

As for “14318 (sense GACTTTGGCCTGGCCCGGAC; DNA, all phosphorothioate, methylation of C not given here) [compound 14318]”, the “Normalized % Control” value (JNK2 mRNA dose response, 50 nM) turned out to be 87.1%; the “Normalized % Control” value under setting [2] was 89.8%; the “Normalized % Control” value under setting [3] was 92.1%; the “Normalized % Control” value under setting [4] came to 99.6%.

As for “14319 (GTGCGCGCGAGCCCGAAATC; DNA, all phosphorothioate, methylation of C not given here) [compound 14319]”, the “Normalized % Control” value is recorded as 90.4% (JNK2 mRNA dose response, 50 nM); 93.7% under setting [2]; 110.2% under setting [3]; 100.0% under setting [4].

On to “15352 (antisense eG*eT*e[5mC]*e[5mC]*eG*eG*eG*e[5mC]*e[5mC]*eA*eG*eG*e[5mC]*e[5mC]*eA*eA*eA*eG*eT*e[5mC]) [compound 15352]”, for which the “Normalized % Control” value under setting [6] was determined as 132.4% and the “Normalized % Control” value under setting [7] came out at 158.4%.

Regarding “15354 (antisense eGeTe[5mC]e[5mC]eG*dG*dG*dC*dC*dA*dG*dG*dC*dC*eAeAeAeGeTe[5mC]) [compound 15354]”, the “Normalized % Control” value runs as follows: under setting [6], 38.3%; under setting [7], 17.1%. Besides, the “inhibition of JNK2 mRNA expression” value (chemically modified derivatives of ISIS 12560, 400 nM (text to Table 12)) is “approximately 80%”.

Regarding “15355 (antisense eG*eT*e[5mC]*e[5mC]*eG*eG*eG*e[5mC]*e[5mC]*eA*eG*dG*dC*dC*dA*dA*dA*dG*dT*dC) [compound 15355]”, the “Normalized % Control” value runs as follows: under setting [6], 61.3%; under setting [7], 29.1%.

For the substance “15356 (antisense dG*dT*dC*dC*dG*dG*dG*dC*dC*eA*eG*eG*e[5mC]*e[5mC]*eA*eA*eA*eG*eT*e[5mC]) [compound 15356]”, the “Normalized % Control” value runs as follows: under setting [6], 38.6%; under setting [7], 11.0%.

On to “15357 (antisense GTCCGGGCCAGGCCAAAGTC; wingmer: 5' deoxy phosphorothioate wing, 3' MOE phosphodiester wing, wing lengths not given here) [compound 15357]”, for which the “Normalized % Control” value reads like this: under setting [6], 42.8%; under setting [7], 13.7%.

As for “15358 (antisense eGeTe[5mC]e[5mC]eGeGeGe[5mC]e[5mC]eAeG*dG*dC*dC*dA*dA*dA*dG*dT*e[5mC]) [compound 15358]”, the “Normalized % Control” value runs as follows: under setting [6], 47.4%; under setting [7], 29.4%.

As to “GTC-CGG-GCC-AGG-CCA-AAG-TC (GTCCGGGCCAGGCCAAAGTC; chemistry not given here) [ISIS 12560]”, the “% INHIBITION” value (JNK2 mRNA time course, t=12 h) is “greater than or equal to 80%” and the “% INHIBITION” value (JNK2 mRNA time course, t=48 h) is given as “greater than or equal to 60%”.

These data come from US20040029823A1, “Antisense oligonucleotide compositions and methods for the modulation of JNK proteins” (priority 1997, published 2004).
